Source: patent US12012404B2, “Pyrimidoheterocyclic compounds and application thereof” (D3 BIO (WUXI) CO., LTD., priority 2020, dated 2024)

Assays:
[1] = Metabolic stability in hepatocytes, SD rats; type: in vitro ADME
Procedure: Purpose of the assay: Metabolic stabilities of assay compounds in hepatocytes of CD-1 mice, SD rats, beagle dogs, cynomolgus monkeys, and human were assayed, respectively.
Procedure of the assay: Several 96-well sample precipitation plates were prepared and named T0, T15, T30, T60, T90, T120, TO-MC, T120-MC and blank substrates, respectively. The recovery medium and incubation medium were taken out in advance and placed in a 37° C. water bath for pre-heating. Cryopreserved hepatocytes were removed from the liquid nitrogen tank and immediately immersed in a 37° C. water bath (approximately 90 seconds). After the cryopreserved hepatocytes had thawed and loosened, they were poured into a centrifuge tube containing 40 mL of recovery medium, and the tube was gently inverted to allow the cells to be resuspended in the recovery medium. The cells were centrifuged at 100×g at room temperature for 5 min, and the supernatant was removed. The hepatocytes were resuspended in an appropriate volume of incubation medium, and the cell viability was calculated by Trypan Blue staining method. 198 μL of hepatocyte suspension (0.51×10^6 cells/mL) was added to the preheated incubation plate. For the culture medium control group, 198 μL of hepatocyte-free incubation medium was added to T0-MC and T120-MC incubation plate. All incubation plates were pre-incubated in a 37° C. incubator for 10 minutes. Then 2 μL of working solutions of the assay sample and the control compound were added, respectively, and the mixture was mixed well. The incubation plate was immediately put into the shaker in the incubator, and the reaction was initiated while starting the timer. For each time point of each compound, 2 duplicate samples were prepared. The incubation conditions were 37° C., saturated humidity, and 5% CO2. In the assay system, the final concentration of the assay sample was 1 μM, the final concentration of the control sample was 3 μM, the final concentration of hepatocytes was 0.5×10^6 cells/mL, and the final concentration of the total organic solvent was 0.96%, of which the final concentration of DMSO was 0.1%. At the end of the incubation for the corresponding time point, the incubation plate was taken out, and 25 μL of a mixture of compound and control compound with cells was added to the sample plate containing 125 μL of stop solution (200 ng/mL tolbutamide and labetalol in acetonitrile). For the Blank sample plate, 25 μL of hepatocyte-free incubation medium was added directly. After sealing, all sample plates were shaken on a shaker at 600 rpm for 10 minutes, and then centrifuged at 3220×g for 20 minutes. Supernatants of the assay sample and the control sample were diluted with ultrapure water at a ratio of 1:3. All samples were mixed well and analyzed by LC/MS/MS.

[2] = tested on: human pancreatic cancer Mia PaCa-2 cells; assay: Pharmacodynamics in vivo in subcutaneously transplanted tumor model of Mia PaCa-2 cells; set-up: species or system Balb/c Nude mice; conditions: day 22 of administration
Procedure: Assay on pharmacodynamics in vivo in a subcutaneously transplanted tumor model of human pancreatic cancer Mia PaCa-2 cells in Balb/c Nude mice
Cell culture: Human pancreatic cancer Mia PaCa-2 cells (ATCC-CRL-1420) were cultured in monolayer in vitro in DMEM medium with 10% fetal calf serum and 2.5% horse serum in a 37° C., 5% carbon dioxide incubator. Cells were passaged by routine digestion with trypsin-EDTA twice a week. When the cell saturation reached 80%-90% and the cell number met the requirement, the cells were harvested, counted, and resuspended in an appropriate amount of PBS. Matrigel was added in a ratio of 1:1 to obtain a cell suspension with a cell density of 25×10^6 cells/mL.
Cell inoculation: 0.2 mL (5×10^6 cells/mouse) of Mia PaCa-2 cells (plus Matrigel, 1:1 by volume) were subcutaneously inoculated into the right back of each mouse. When the average tumor volume reached 190 mm^3, mice were randomized into groups based on tumor volume and administration was initiated according to the protocol in Table 10.
Tumor diameter was measured with vernier caliper twice a week. The calculation formula of tumor volume was: V=0.5a×b^2, where a and b represent the long and short diameters of the tumor, respectively.
The anti-tumor efficacy of compounds was evaluated by TGI (%) or relative tumor proliferation rate T/C (%). Relative tumor proliferation rate T/C (%)=TRTV/CRTV×100% (TRTV: RTV in a treatment group; CRTV: RTV in a negative control group). The relative tumor volume (RTV) was calculated according to results of tumor measurement, and the calculation formula was RTV=Vt/VO, where VO was average tumor volume measured at the time of administration by group (i.e., DO), and Vt was average tumor volume at the time of a certain measurement. For TRTV and CRTV, data on the same day were used.
TGI (%) reflected tumor growth inhibition rate. TGI (%)=[(1−(average tumor volume at the end of administration of a treatment group−average tumor volume at the beginning of administration of the treatment group))/(average tumor volume at the end of treatment of a vehicle control group−average tumor volume at the beginning of treatment of the vehicle control group)]×100%.

[3] = Stability assay in whole blood, beagle dogs; type: in vitro ADME; conditions: 5 μM, 37° C.
Procedure: Purpose of the assay: Stabilities of the assay compounds in whole blood of CD-1 mice, SD rats, Beagle dogs and cynomolgus monkeys were assayed, respectively.
Procedure of the assay: On the day of the assay or the day before the assay, fresh whole blood from CD-1 mice, SD rats, beagle dogs, and cynomolgus monkeys was collected using anticoagulant EDTA-K2. Prior to the start of the assay, the whole blood was mixed with PBS in 1:1 (v:v) and the mixture was preheated in a 37° C. water bath for 10-20 minutes. […] […] All samples were incubated in a 37° C. water bath. The final incubation concentration of the compound was 5 μM and the final incubation concentration of the control compound was 2 μM. At the end of incubation for each time point, the corresponding incubation plate was removed and 100 μL of ultrapure water was immediately added to the corresponding sample wells, and mixed well. 800 μL of a solution of 200 ng/mL tolbutamide and labetalol in acetonitrile was added to precipitate the protein. The sample plates were sealed and shaken well, and then centrifuged at 3220×g for 20 min. 150 μL of supernatant was taken out and analyzed by LC/MS/MS.

Row | SMILES | CLint(hep) ([1]; 1 μM) | CLint(liver) ([1]; 1 μM) | T1/2 ([1]; 1 μM) | Average tumor volume ([2]; 10 mg/kg PO QD) | T/C ([2]; 10 mg/kg PO QD) | TGI ([2]; 10 mg/kg PO QD) | Average tumor volume ([2]; 30 mg/kg PO QD) | T/C ([2]; 30 mg/kg PO QD) | TGI ([2]; 30 mg/kg PO QD) | Detection of assay compound content within 120 min [3] | half-life at 1 μM ([1]; rat, cryopreserved hepatocytes) | CLint scaled at 1 μM ([1]; rat, cryopreserved hepatocytes, read-out: CLint(liver))
1 | C=C(F)C(=O)N1CCN(c2nc(OCC3CCCN3C)nc3c2COC(c2c(F)c(N)cc(C)c2C(F)(F)F)C3)CC1CC#N.Cl (single isomer, unassigned) [Compound 8B hydrochloride] | 7.5 μL/min/10^6 | 35.0 mL/min/kg | 185.2 min | 745.84 mm^3 | 36.99% | 66.89% | 227.15 mm^3 | 11.28% | 94.23% | 96% |  | 
2 | C=C(F)C(=O)N1CCN(c2nc(OC[C@@]34CCCN3C[C@H](F)C4)nc3c2COC(c2c(F)c(N)cc(C)c2C(F)(F)F)C3)C[C@@H]1CC#N (some centres unmarked) [Compound 17] | 67.4 μL/min/10^6 |  |  | 249.87 mm^3 | 12.39% | 93.06% | 124.14 mm^3 | 6.16% | 99.64% | 102% | 20.6 min | 315 mL/min/kg
